One data set addresses human 5-HT6 receptor (Homo sapiens (Human), UniProt P50406). Briefly: 5-HT6 radioligand binding assay (SPA format, [N-methyl-3H]-LSD). Conditions: human 5-HT6 receptor membranes, 10 nM [N-methyl-3H]-LSD; Ki by Cheng-Prusoff; read-out: human 5HT6 Ki. As for the experimental part: The relative affinities of the various compounds for the 5-HT6 receptor were measured in a radioligand binding assay, using a scintillation proximity assay (SPA) format.
For binding analysis vs. the human receptor, samples were incubated in 50 mM Tris-HCl, pH 7.5, 5 mM MgCl2, 1 mM EDTA (4% DMSO final) with 10 nM [N-methyl-^3H]-LSD (Perkin Elmer), 2.5 ng of human 5-HT6 receptor membranes (Millipore) and 50 μg SPA beads (PVT-PEI-WGA, GE Healthcare) per well in a final volume of 0.2 mL. […] Binding reactions were performed in PicoPlate96 microtiter plates (Perkin Elmer) by consecutively adding 50 μL of each competing compound or buffer, SPA beads, radioligand and 5-HT6 receptor membranes. After an overnight incubation at room temperature on a Nutator mixer, plates were centrifuged for 15 min at 1,500 rpm, followed by incubation in the dark for 10 min. […] Total binding control contained compound dilution buffer only; nonspecific binding is determined in the presence of 100 μM 5-hydroxytryptamine. Specific binding was determined by subtracting nonspecific binding from total binding.
All experiments were performed in duplicate using ten concentrations of competing ligand, with clozapine included as a control in every run. IC50 values were determined from specific binding data using XLfit4.1 curve fitting software from IDBS Ltd. The inhibition constant (Ki) was calculated using the Cheng-Prusoff equation: (Ki=IC50/(1+(L/KD)), where L=concentration of radioligand in the assay, and KD=affinity of the radioligand for the receptor.

Where a name gives a salt, the structure may show the parent alone.

Chain of human 5-HT6 receptor (P50406 whole entry): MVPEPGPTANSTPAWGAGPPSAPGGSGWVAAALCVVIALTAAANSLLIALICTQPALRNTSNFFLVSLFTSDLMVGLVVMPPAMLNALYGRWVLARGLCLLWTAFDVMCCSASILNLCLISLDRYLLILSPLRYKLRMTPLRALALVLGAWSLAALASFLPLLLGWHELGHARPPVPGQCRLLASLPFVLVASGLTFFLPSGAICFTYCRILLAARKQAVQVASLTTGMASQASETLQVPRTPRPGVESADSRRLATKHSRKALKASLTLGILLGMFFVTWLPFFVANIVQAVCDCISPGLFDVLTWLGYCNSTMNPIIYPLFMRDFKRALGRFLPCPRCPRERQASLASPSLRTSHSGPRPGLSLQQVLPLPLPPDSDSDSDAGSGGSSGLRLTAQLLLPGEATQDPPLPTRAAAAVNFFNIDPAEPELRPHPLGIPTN

For the molecule `Cl.O=S(=O)(c1cccc(Cl)c1)c1ccc2c3c(oc2c1)CC1CCC3N1` (stereo not shown) [Example 65, 3-(3-Chlorophenyl)sulfonyl-6,7,8,9,10-pentahydro-7,10-epiminocyclohepta[b]benzofuran hydrochloride], the melting point (commonly the temperature of the solid-liquid transition) lay in the range of 193 to 197 °C. Besides, the Ki (usually a dissociation constant, usually derived from enzyme kinetics or from competition with a known ligand) on human 5-HT6 receptor came out at 154 nM.

`Cl.Cn1cc(S(=O)(=O)c2cc(Cl)c3oc4c(c3c2)CNCC4)c2ccccc21` [Example 50, 6-Chloro-8-(1-methyl-1H-indol-3-ylsulfonyl)-1,2,3,4-tetrahydrobenzofuro[3,2-c]pyridine]: the melting point fell in the range of 262 to 264 °C. Also, at human 5-HT6 receptor, the inhibitory constant (Ki) was found to be 0.17 nM.

Turning to `Cl.N#Cc1cccc(S(=O)(=O)c2cc(Cl)c3oc4c(c3c2)CNCC4)c1` [Example 48, 6-Chloro-8-(3-cyanophenylsulfonyl)-1,2,3,4-tetrahydrobenzofuro[3,2-c]pyridine hydrochloride], the melting point lay in the range of 272 to 274 °C. In addition, the inhibition constant Ki at human 5-HT6 receptor was 12 nM.

With `Cl.O=S(=O)(c1ccc(Cl)cc1)c1ccc2oc3c(c2c1)CNCC3` [Example 32, 8-(4-Chlorophenylsulfonyl)-1,2,3,4-tetrahydrobenzofuro[3,2-c]pyridine hydrochloride], the melting point fell in the range of 302 to 305 °C. In addition, the Ki at human 5-HT6 receptor amounted to 38 nM.

In the case of `Cl.Clc1cc(Sc2ccccc2)cc2c3c(oc12)CCNC3` [Example 91, 6-chloro-8-(phenylthio)-1,2,3,4-tetrahydrobenzofuro[3,2-c]pyridine hydrochloride], the melting point is 241 to 248 °C (dec.). Besides, on human 5-HT6 receptor, the inhibition constant (Ki) was 12 nM.

Consider `Cl.O=S(=O)(c1ccc(F)cc1)c1ccc2oc3c(c2c1)CNCC3` [Example 31, 8-(4-Fluorophenylsulfonyl)-1,2,3,4-tetrahydrobenzofuro[3,2-c]pyridine hydrochloride], for which the melting point was in the range of 270 to 280 °C. On human 5-HT6 receptor, the inhibitory constant (Ki) came to 43 nM.

With `COc1cc(S(=O)(=O)c2ccccc2)cc2c3c(oc12)CCNC3.Cl` [Example 54, 6-Methoxy-8-(phenylsulfonyl)-1,2,3,4-tetrahydrobenzofuro[3,2-c]pyridine hydrochloride], the melting point is 197 to 202 °C. Also, on human 5-HT6 receptor, the Ki came to 0.12 nM.

`Cc1cn(S(=O)(=O)c2ccc3oc4c(c3c2)C2CCC(C4)N2)c2ccccc12.Cl` (stereo not shown) [Example 58, 2-(3-Methyl-1H-indol-1-yl)sulfonyl-6,7,8,9,10-pentahydro-7,10-epiminocyclohepta[b]benzofuran hydrochloride] registered a melting point of 195 to 199 °C. Also, the Ki on human 5-HT6 receptor was found to be 16 nM.

For the molecule `Cl.O=S(=O)(c1cc(F)cc(F)c1)c1ccc2oc3c(c2c1)CNCC3` [Example 37, 8-(3,5-Difluorophenylsulfonyl)-1,2,3,4-tetrahydrobenzofuro[3,2-c]pyridine hydrochloride], the melting point was 275 to 281 °C (dec.). Also, on human 5-HT6 receptor, the Ki was determined as 339 nM.

`Cl.O=S(=O)(c1ccccc1)c1cc(F)c2oc3c(c2c1)CNCC3` [Example 52, 6-Fluoro-8-(phenylsulfonyl)-1,2,3,4-tetrahydrobenzofuro[3,2-c]pyridine hydrochloride] returned a melting point of 232 to 250 °C. Moreover, the inhibition constant (Ki) at human 5-HT6 receptor was 5.1 nM.

Molecule `Cl.O=S(=O)(c1ccc(Cl)cc1)c1cc(Cl)c2oc3c(c2c1)CNCC3` [Example 49, 6-Chloro-8-(4-chlorophenylsulfonyl)-1,2,3,4-tetrahydrobenzofuro[3,2-c]pyridine hydrochloride] registered a melting point of 282 to 284 °C. For the same molecule, the inhibitory constant (Ki) on human 5-HT6 receptor amounted to 1.9 nM.

With `Cl.O=S(=O)(c1ccccc1)c1ccc2c3c(oc2c1)CCNC3` [Example 60, 7-(Phenylsulfonyl)-1,2,3,4-tetrahydrobenzofuro[3,2-c]pyridine hydrochloride], the melting point was in the range of 235 to 238 °C. In addition, at human 5-HT6 receptor, the Ki worked out at 9.8 nM.

For `O=S(=O)(c1ccc(C2CCO2)cc1)c1cc(Cl)c2oc3c(c2c1)CNCC3` (stereo not shown) [Example 126], the Ki at human 5-HT6 receptor is 10 nM.

In the case of `COc1cc(S(=O)(=O)c2ccc(C(F)(F)F)cc2)cc2c3c(oc12)CCNC3` [Example 162], on human 5-HT6 receptor, the Ki was 0.49 nM.

Regarding `Cc1cc(S(=O)(=O)c2ccc(F)cc2)cc2c3c(oc12)CCNC3` [Example 203], the Ki at human 5-HT6 receptor was 1.5 nM.

Consider `CC(C)(O)COc1cc(S(=O)(=O)c2ccccc2)cc2c3c(oc12)CCNC3` [Example 218], for which the inhibition constant (Ki) on human 5-HT6 receptor was found to be 507 nM.

Consider `Cc1cc(S(=O)(=O)c2cccc(OC(F)F)c2)cc2c3c(oc12)CCNC3` [Example 202], for which, at human 5-HT6 receptor, the Ki stood at 0.3 nM.

Consider `O=S(=O)(c1ccc2[nH]ccc2c1)c1cc(Cl)c2oc3c(c2c1)CNCC3` [Example 143], for which, at human 5-HT6 receptor, the Ki is 0.13 nM.

In the case of `O=S(=O)(c1ccccc1)c1cc(Cl)c2oc3c(c2c1)CN(c1cccnc1)CC3` [Example 115], the inhibition constant Ki on human 5-HT6 receptor was 123 nM.

As to `Cn1ccc(-c2cc(S(=O)(=O)c3ccccc3)cc3c4c(oc23)CCNC4)n1` [Example 227], the Ki on human 5-HT6 receptor was found to be 60 nM.

In the case of `COc1cc(S(=O)(=O)c2ccc(F)c(F)c2)cc2c3c(oc12)CCNC3` [Example 161], on human 5-HT6 receptor, the Ki turned out to be 0.32 nM.

Consider `CC(C)(O)c1ccccc1S(=O)(=O)c1cc(Cl)c2oc3c(c2c1)CNCC3` [Example 142], for which the Ki at human 5-HT6 receptor is 25 nM.

Consider `COc1cc(S(=O)(=O)c2cccc(C(O)C(F)(F)F)c2)cc2c3c(oc12)CCNC3` (stereo not shown) [Example 178], for which the Ki at human 5-HT6 receptor came out at 0.32 nM.

For `COc1cc(S(=O)(=O)c2ccc(OC(F)F)cc2)cc2c3c(oc12)CCNC3` [Example 164], the Ki on human 5-HT6 receptor turned out to be 0.4 nM.

As for `CCN1CCc2oc3c(Cl)cc(S(=O)(=O)c4ccccc4)cc3c2C1` [Example 117], the Ki at human 5-HT6 receptor was 1.2 nM.

For `COCCN1CCc2oc3c(Cl)cc(S(=O)(=O)c4ccccc4)cc3c2C1` [Example 149], the inhibition constant (Ki) at human 5-HT6 receptor was determined as 1.6 nM.

Consider `O=S(=O)(c1ccccc1)c1cc(Cl)c2oc3c(c2c1)CN(C1COC1)CC3` [Example 150], for which, on human 5-HT6 receptor, the inhibition constant (Ki) came out at 76 nM.

`O=S(=O)(c1cncc(C(F)(F)F)c1)c1cc(Cl)c2oc3c(c2c1)CNCC3` [Example 121]: the inhibition constant (Ki) on human 5-HT6 receptor worked out at 29 nM.

As for `COc1cc(S(=O)(=O)c2cccc(C(C)(C)O)c2)cc2c3c(oc12)CCNC3` [Example 177], the inhibitory constant (Ki) on human 5-HT6 receptor came to 0.35 nM.

Take `CN(C)C(=O)CN1CCc2oc3c(Cl)cc(S(=O)(=O)c4ccccc4)cc3c2C1` [Example 148]: at human 5-HT6 receptor, the Ki worked out at 45 nM.

Consider `O=S(=O)(c1ccc(C(O)C(F)(F)F)cc1)c1cc(Cl)c2oc3c(c2c1)CNCC3` (stereo not shown) [Example 131], for which the inhibitory constant (Ki) at human 5-HT6 receptor is 7.6 nM.

On to `CC(O)c1ccc(S(=O)(=O)c2cc(Cl)c3oc4c(c3c2)CNCC4)cc1` (stereo not shown) [Example 137], for which, on human 5-HT6 receptor, the Ki turned out to be 5.6 nM.

Consider `N#Cc1cc(S(=O)(=O)c2ccc(F)cc2)cc2c3c(oc12)CCNC3` [Example 209], for which the Ki at human 5-HT6 receptor is 18 nM.

As to `COc1cc(S(=O)(=O)c2ccc(C3CCOC3)cc2)cc2c3c(oc12)CCNC3` (stereo not shown) [Example 180], at human 5-HT6 receptor, the Ki came to 2.2 nM.

On to `O=S(=O)(c1cccc(Cl)c1)c1cc(Cl)c2oc3c(c2c1)CNCC3` [Example 46, 6-Chloro-8-(3-chlorophenylsulfonyl)-1,2,3,4-tetrahydrobenzofuro[3,2-c]pyridine hydrochloride], for which the Ki on human 5-HT6 receptor came out at 0.35 nM.

Take `COc1cc(S(=O)(=O)c2ccc(C(C)O)cc2)cc2c3c(oc12)CCNC3` (stereo not shown) [Example 170]: the inhibitory constant (Ki) on human 5-HT6 receptor was found to be 2.9 nM.

As to `COc1cc(S(=O)(=O)c2cccc(C(C)O)c2)cc2c3c(oc12)CCNC3` (stereo not shown) [Example 173], on human 5-HT6 receptor, the Ki came to 0.6 nM.

`CN1CCc2oc3c(Cl)cc(S(=O)(=O)c4ccccc4)cc3c2C1` [Example 116]: at human 5-HT6 receptor, the Ki is 1 nM.

As to `O=S(=O)(c1cc(Cl)c2oc3c(c2c1)CNCC3)n1ccc2ccccc21` [Example 51, 8-(1H-Indol-1-ylsulfonyl)-6-chloro-1,2,3,4-tetrahydrobenzofuro[3,2-c]pyridine hydrochloride], the inhibitory constant (Ki) on human 5-HT6 receptor is 0.2 nM.

Regarding `CC(O)c1cc(S(=O)(=O)c2ccccc2)cc2c3c(oc12)CCNC3` (stereo not shown) [Example 221], on human 5-HT6 receptor, the inhibitory constant (Ki) amounted to 5.7 nM.

Turning to `O=S(=O)(c1cccnc1)c1cc(Cl)c2oc3c(c2c1)CNCC3` [Example 120], the inhibitory constant (Ki) on human 5-HT6 receptor stood at 26 nM.

As to `CC(=O)N1CCc2oc3c(Cl)cc(S(=O)(=O)c4cn(C)c5ccccc45)cc3c2C1` [Example 155], the Ki on human 5-HT6 receptor was 167 nM.

On to `CC(C)(O)c1ccc(S(=O)(=O)c2cc(Cl)c3oc4c(c3c2)CNCC4)cc1` [Example 108], for which, at human 5-HT6 receptor, the Ki worked out at 1.3 nM.

On to `COc1cc(Oc2ccccc2)cc2c3c(oc12)CCNC3` [Example 237], for which the Ki on human 5-HT6 receptor is 645 nM.

Consider `O=S(=O)(c1ccccc1)c1cc(-n2cncn2)c2oc3c(c2c1)CNCC3` [Example 226], for which, at human 5-HT6 receptor, the Ki was found to be 106 nM.

In the case of `COc1cc(S(=O)(=O)c2cccc(OC(F)(F)F)c2)cc2c3c(oc12)CCNC3` [Example 168], the inhibition constant (Ki) at human 5-HT6 receptor came out at 0.19 nM.

Turning to `N#Cc1cc(S(=O)(=O)c2ccc(Cl)cc2)cc2c3c(oc12)CCNC3` [Example 212], the inhibition constant Ki at human 5-HT6 receptor stood at 8.8 nM.

Turning to `O=S(=O)(c1cccc(C(F)(F)F)c1)c1cc(Cl)c2oc3c(c2c1)CNCC3` [Example 45, 6-Chloro-8-(3-trifluoromethylphenylsulfonyl)-1,2,3,4-tetrahydrobenzofuro[3,2-c]pyridine hydrochloride], on human 5-HT6 receptor, the Ki turned out to be 0.48 nM.

As to `COc1cc(S(=O)(=O)c2cc(F)cc(F)c2)cc2c3c(oc12)CCNC3` [Example 186], the Ki on human 5-HT6 receptor was determined as 0.33 nM.

Source of the values: patent US9067949B2, “Benzofuro[3,2-c] pyridines and related analogs as serotonin sub-type 6 (5-HT6) modulators for the treatment of obesity, metabolic syndrome, cognition and schizophrenia” (Albany Molecular Research, Inc., priority 2011, dated 2015).
